Experiment [1] has as its system spontaneously hypertensive rat (SHR). Put plainly: Oral antihypertensive activity in conscious spontaneously hypertensive rat (SHR). It is filed as in vivo. The method, then:
The oral antihypertensive activity of compounds of the invention were examined in conscious spontaneously hypertensive rats. The rats were anesthetized with sodium pentabarbatol (50 mg/kg i.p.). A telemetry transducer was implanted into the rats abdomen via midline incision. The cannula of the transducer was inserted into the abdomenal aorta to allow direct measurement of arterial pressure in the conscious SHR. The transducer was secured to the abdomenal wall. After recovery from surgery (minimum of seven days), the SHR were placed on a receiver plate and the transducer/transmitter was activated. Systolic, diastolic and mean arterial pressure and heart rate were recorded for 1.5 hours in the unrestrained conscious rat to establish a stable baseline. Each rat then received a single dose of the compound of the invention to be tested, or vehicle, and changes in arterial pressure and heart rate were monitored for 20 hours and recorded.

The test system of experiment [2] is normotensive anesthetized rat. Put plainly: In vivo mean arterial pressure and heart rate in normotensive anesthetized rat. The conditions noted are these: iv. The method, then: Normotensive rats were anesthetized with sodium pentobarbital (50 mg/kg, j.p.) and placed on a heated surgical table. Cannulas were inserted into the femoral artery and […] to allow the measurement of arterial pressure and to facilitate the intravenous administration of test compounds. The animals was allowed to equilibrate for 10 minutes after surgery. Mean arterial pressure was continuously measured and recorded and heart rate was monitored using the arterial pressure pulse to trigger a cardiotachometer. After baseline parameters were established and recorded, increasing doses (1, 3, 10, 30, 100, 300 and 1000 μg/kg) of the compound of the invention to be tested were administered intravenously. Maximal changes in the cardiovascular parameters were observed after each dose of the adenosine agonist. Only one compound was administered per rat.

Experiment [3] has as its system swine coronary arteries. Kind of experiment: In vitro vasorelaxation in isolated swine coronary arteries (PGF2α-contracted rings). Conditions: Sus scrofa; 50% reduction in tension, 3 μM PGF2α; Table II; read-out: Vasorelaxation in Swine Coronary Artery/IC50. It is filed as cell-based. The method, then:
Swine coronary arteries were obtained from a local slaughter house, dissected carefully and cleaned of fat, blood and adhering tissue. Rings approximately 2-3 mm wide were cut and transferred to water-jacketed tissue baths (10 ml) filled with warm (37° C.), oxygenated (O2 /CO2 :95%/5%) Krebs-Henseleit buffer and mounted on L-shaped hooks between stainless steel rods and a force transducer. […] Rings were equilibrated for 90 minutes with frequent buffer changes at a resting tension of 5 g In order to assure optimal tension development, arterial rings were primed twice with 36 mM KCl and once with 10 μm. PGF2α, before being exposed to 3 μM PGF2α. […] Tension achieved with 3 μM PGF2α was considered .equivalent to 100%; all other values were expressed as a percentage of that maximum.

Experiment [4] deals with A2 adenosine receptor (Rattus norvegicus, UniProt P30543). Kind of experiment: biochemical. Conditions: rat brain striatum membranes, 3H-CGS 21680; Table II; read-out: Adenosine Receptor Binding Activity/IC50 (nM) A2.
For experiment [5], the target named is T1, A1 adenosine receptor (Rattus norvegicus, UniProt P25099).
T1 sequence (P25099 1-326): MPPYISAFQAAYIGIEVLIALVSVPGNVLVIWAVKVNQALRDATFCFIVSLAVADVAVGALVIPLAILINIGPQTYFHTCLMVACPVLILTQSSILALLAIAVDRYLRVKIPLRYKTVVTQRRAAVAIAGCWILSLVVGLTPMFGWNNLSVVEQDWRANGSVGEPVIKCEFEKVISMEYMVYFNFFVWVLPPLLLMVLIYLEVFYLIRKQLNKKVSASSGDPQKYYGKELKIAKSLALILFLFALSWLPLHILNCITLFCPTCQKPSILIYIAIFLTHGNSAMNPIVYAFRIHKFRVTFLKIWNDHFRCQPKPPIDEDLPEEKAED
Put plainly: biochemical. The conditions noted are these: rat whole brain membranes, 3H-CHA; Table II; read-out: Adenosine Receptor Binding Activity/IC50 (nM) A1. The procedure: Non-specific binding was assessed in the presence of 1 mM theophylline.
The assays were run in glass test tubes in duplicate at 25° C. Once the membranes were added, the tubes were vortexed and incubated at 25° C. for 60 minutes (A1 assay) or 90 minutes (A2 assay) on a rotary shaker. The assay tubes were vortexed halfway through the incubation and again near the end. The assays were terminated by rapid filtration through 2.4 cm GF/B filters using a Brandel Cell Harvestor. The test tubes were washed three times with cold 50 mM tris-HCl (pH 7.7 or 7.4), with filtration being completed within 15 seconds. The damp filter circles were placed in glass scintillation vials filled with 10 ml of Aquasol II (New England Nuclear). The vials were allowed to shake overnight on a rotary shaker and were placed into a liquid scintillation analyzer for two minute counts. IC50 values for receptor binding, i.e. the concentration at which a compound of the invention displaced the radiolabeled standard, were obtained using a curve-fitting computer program (RS/1, Bolt, Beranek and Newman, Boston, Mass.).

For experiment [6], the system named is rat adipocytes. Kind of experiment: In vitro lipolysis assay in rat adipocytes (glycerol production). It is filed as cell-based. The conditions noted are these: Rattus norvegicus, Adipocyte; for EC50: read-out: EC50 (50% inhibition of glycerol production), unit nM in cell. The method, then: Adipose tissue is removed from anesthetized rats and rinsed twice in incubation medium (2.09 g sodium bicarbonate and 0.04 g EDTA, disodium salt, in 1 L Krebs buffer). Each rat (300-350 g) yields approximately 4 ml of adipose tissue. The adipose tissue (35 ml) is cut into small pieces with scissors and washed with incubation medium (50 ml). The mixture is poured into the barrel of a 50 ml syringe to which is attached a short piece of clamped tubing instead of a needle. The aqueous phase is allowed to drain. A second wash with incubation medium is passed through the syringe. The tissue is added to 50 ml of collagenase solution (collagenase(90 mg), bovine serum albumin (BSA) (500 mg), and 0.1 M calcium chloride solution (1 ml), in incubation medium (50 ml)) in a 1 L bottle. The mixture is shaken in an environmental at 37° C. for about 60 minutes under an atmosphere of 95% oxygen/5% carbon dioxide to effect digestion of the tissue. The dispersed cells are poured through 2 layers of cheese cloth into a 100 ml plastic beaker. The undigested clumps in the cloth are rinsed once with incubation medium (20 ml). The cells in the beaker are centrifuged in 2 plastic tubes for 30 seconds at room temperature at 300 rpm. The aqueous phase is aspirated from beneath the loosely packed layer of floating fat cells and discarded. The adipocytes are gently poured into a 250 ml plastic beaker containing 100 ml of rinse solution (1 g BSA per 100 ml incubation medium). After gentle stirring the centrifugation step is repeated. Another wash with rinse solution follows. The cells are pooled and their volume is estimated with a graduated cylinder. The adipocytes are diluted in twice their volume of assay buffer (incubation medium (120 ml), BSA (1.2 g), pyruvic acid (13 mg)).
The assay is performed in 20 ml plastic scintillation vials and the total assay volume is 4.2 ml. Assay buffer (2.5 ml), diluted adipocytes (1.5 ml), and a solution of the compound to be tested (12.3 μL) adenosine agonist (12.3 μl; varying concentration) is incubated in the environmental shaker for 15 minutes, then the reaction is started with norepinephrine solution (41.2 μL) (10 nM, in a carrier solution containing water (100 ml), BSA (4 mg), and 0.1 M EDTA (20 I. LL))and adenosine deaminase (1 μg/ml, 41.2 μl). After sixty minutes in the shaker the reaction is terminated by putting the vials on ice. […] The hard lipid layer is removed by aspiration and the aqueous layer is assayed for glycerol (400 μl of sample). The positive control is done in the absence of any adenosine agonist, substituting water in place of the solution to be tested.

The mark [7] stands for this setting: dose lowering heart rate by 25%, read-out: Blood Press/Heart Rate Anesthetized Rat HR/ED25.
The mark [8] stands for this setting: dose lowering mean arterial pressure by 25%, read-out: Blood Press/Heart Rate Anesthetized Rat MAP/ED25.

The values that follow come from patent US5652366A, “DI (1R)-(-)camphosulfonic acid) salt, preparation thereof and use thereof” (Rhone-Poulenc Rorer Pharmaceuticals Inc., priority 1995, dated 1997).

The structures appear in SMILES notation. Read-outs that look alike come from different tables or passages of the source. Bounds are passed on as bounds.

A2 adenosine receptor, sequence (P30543 whole entry): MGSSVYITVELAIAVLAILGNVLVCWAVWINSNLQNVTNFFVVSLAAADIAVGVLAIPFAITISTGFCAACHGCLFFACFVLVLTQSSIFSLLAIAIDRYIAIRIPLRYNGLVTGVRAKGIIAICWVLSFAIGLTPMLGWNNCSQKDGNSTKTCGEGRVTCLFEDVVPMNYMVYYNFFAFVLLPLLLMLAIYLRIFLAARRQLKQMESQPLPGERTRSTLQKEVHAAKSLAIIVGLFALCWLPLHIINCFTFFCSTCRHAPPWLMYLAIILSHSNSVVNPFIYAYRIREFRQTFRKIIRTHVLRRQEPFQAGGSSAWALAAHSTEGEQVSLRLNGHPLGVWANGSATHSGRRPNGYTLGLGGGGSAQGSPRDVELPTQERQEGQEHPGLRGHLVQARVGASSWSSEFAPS

Regarding `OC[C@H]1O[C@@H](n2cnc3c(N[C@@H]4CC=CC[C@H]4c4cccs4)ncnc32)[C@H](O)[C@@H]1O` (relative stereo) [Example 4, N6-[trans-2-(thiophen-2-yl)cyclohex-4-en-yl]adenosine], in experiment [1] (5 mg/kg, D = decrease), the “SHR HR/%” value worked out at 20% and the “SHR MAP/%” value is on record as 28%. In addition, in experiment [2] (setting [7]), the ED25 stood at 0.019 mg/kg. In experiment [2] (setting [8]), the ED25 was found to be 0.013 mg/kg. Also, the EC50 in experiment [3] worked out at 730 nM.

For `CCNC(=O)[C@H]1C[C@@H](n2cnc3c(NCCNc4nc5ccccc5s4)ncnc32)[C@H](O)[C@@H]1O` (relative stereo) [Example 29, (±)-N^6-[2-(2'-aminobenzothia-zolyl)ethyl]carbocyclic adenosine-5'-N-ethyl carboxamide], the IC50 was above 1000 nM in experiment [4] and 35.5 nM in experiment [5]. The “SHR HR/%” value in experiment [1] (5 mg/kg, D = decrease) is reported as 12%. Moreover, the “SHR MAP/%” value in experiment [1] (5 mg/kg, D = decrease) is listed as 18%. Also, the values for the ED25 in experiment [2] (setting [7]) and in experiment [2] (setting [8]) were 0.031 mg/kg and 0.016 mg/kg, respectively. In addition, the EC50 in experiment [3] is 22000 nM.

As to `CCNC(=O)[C@H]1C[C@@H](n2cnc3c(N[C@H](C)Cc4cccs4)ncnc32)[C@H](O)[C@@H]1O` (single isomer, unassigned) [Example 27], the “SHR MAP/%” value in experiment [1] (1 mg/kg, D = decrease) is 27%. The “SHR HR/%” value in experiment [1] (1 mg/kg, I = increase) came to 1%. In experiment [3], the EC50 was found to be 43 nM.

Regarding `OC[C@H]1O[C@@H](n2cnc3c(N[C@@H]4CCCC[C@H]4c4cccs4)ncnc32)[C@H](O)[C@@H]1O` (relative stereo) [Example 7, N^6-[trans-2-(thiophen-2-yl)-cyclohex-1-yl]adenosine], in experiment [1] (5 mg/kg, D = decrease), the “SHR HR/%” value is recorded as 22% and the “SHR MAP/%” value was found to be 45%. Further, the ED25 in experiment [2] (setting [7]) is 0.018 mg/kg. Further, the ED25 in experiment [2] (setting [8]) is 0.006 mg/kg. The EC50 in experiment [3] worked out at 4000 nM.

Regarding `CCNC(=O)[C@H]1C[C@@H](n2cnc3c(NCCc4scnc4C)ncnc32)[C@H](O)[C@@H]1O` (relative stereo) [Example 24, (±)-N^6-[2-(4"-methyl-5"-thiazolyl)thyl]carbocyclic adenosine-5'-N-ethyl carboxamide], in experiment [1] (5 mg/kg, D = decrease), the “SHR MAP/%” value came out at 17%. In addition, the “SHR HR/%” value in experiment [1] (5 mg/kg, I = increase) amounted to 6%. Besides, the ED25 is above 0.01 mg/kg in experiment [2] (setting [7]) and 0.006 mg/kg in experiment [2] (setting [8]).

Broadly, the inhibition is the change of the read-out against control, counted positive when it falls. For the molecule `CCNC(=O)[C@H]1C[C@@H](n2cnc3c(NCCc4cccs4)ncnc32)[C@H](O)[C@@H]1O` [Example 26, (-)-N^6-[(thiophen-2"-yl)ethan-2-yl]carbocyclic adenosine-5'-N-ethyl carboxamide], the values for the IC50 in experiment [4] and in experiment [5] were 63.1 nM and 87.1 nM, respectively. For the same molecule, the “SHR MAP/%” value in experiment [1] (2.5 mg/kg, D = decrease) is given as 41%. In addition, in experiment [1] (2.5 mg/kg, I = increase), the “SHR HR/%” value was determined as 3%. In addition, the ED25 in experiment [2] (setting [7]) was above 0.03 mg/kg; in experiment [2] (setting [8]) it was 0.004 mg/kg. In addition, the EC50 in experiment [6] was determined as 89 nM; in experiment [3], 82 nM. Further, the inhibition at 1 µM in experiment [6] (1 μM, versus positive control, read-out: % Inhibition of glycerol production) was found to be 96%.

`CCNC(=O)[C@H]1C[C@@H](n2cnc3c(N[C@H](C)Cc4ccc(Cl)s4)ncnc32)[C@H](O)[C@@H]1O` [Example 6, (-)-[2S-[2α,3α-dihydroxy-4-β-[N6-[2-(5-chloro-2-thienyl)-(1R)-1-methylethyl]amino]-9-adenyl]cyclopentane]-1-β-N-ethylcarboxamide]: the IC50 in experiment [4] was determined as 12.9 nM; in experiment [5], 2.69 nM. Moreover, the “SHR MAP/%” value in experiment [1] (1 mg/kg, D = decrease) turned out to be 18%. In experiment [1] (1 mg/kg, I = increase), the “SHR HR/%” value worked out at 7%. For the same molecule, the EC50 in experiment [6] stood at 0.76 nM; in experiment [3] it was 21 nM.
